{"source": "patent US20210353769A1", "about": "“SURFACE MODIFIED EXTRACELLULAR VESICLES” (City University of Hong Kong, priority 2018, published 2021)", "test_system": "H358 cells", "test": "Uptake of Calcein AM-labelled RBCEVs by H358 cells (FACS)", "assay_type": "cell-based, human", "settings": "5-20 μg/ml Filipin", "experimental": "To test the uptake of RBCEVs by the cells, we labelled RBCEVs with Calcein AM, a fluorescent dye, and sortagged the labelled RBCEVs with biotinylated EGFR-targeting peptide as described above. The labelled and sortagged RBCEVs were washed extensively with SEC and 2 rounds of centrifugation. We incubated H358 cells with a suboptimal dose of the labelled RBCEVs and analysed Calcein AM fluorescence in the cells after 2 hours of incubation (FIG. 8C). The fluorescent background was determined based on the supernatant of the last wash (flowthrough) of the labelled RBCEVs.\nIn a shorter uptake assay, H358, HCC827, MOLM13 and THP1 cells were incubated with Calcein AM-labelled RBCEVs for 1 to 2 hours at 37° C. To identify the route of EV uptake, we added 25-100 μM EIPA, 5-20 μg/ml Filipin, 0.25-1 μM Wortmannin.\nFlow cytometry of latex beads or cells in FACS buffer was performed using a CytoFLEX-S cytometer (Beckman Coulter) and analyzed using Flowjo V10 (Flowjo, USA). The beads or cells were initially gated based on FSC-A and SSC-A to exclude the debris and dead cells (low FSC-A). The cells were further gated based on FSC-width vs. FSC-height, to exclude doublets and aggregates."}
{"compound": "CCCCC[C@@H](O)[C@H]1C(=O)O[C@H](C)[C@@H](O)/C=C/C=C/C=C/C=C/C=C(\\C)[C@@H](O)C[C@H](O)C[C@H](O)C[C@H](O)C[C@H](O)C[C@H](O)C[C@@H]1O", "note": "[Filipin]", "values": [{"measurement": "effect of endocytosis inhibitor on uptake of ET-ligated RBCEVs", "result": "reduce the uptake"}]}
